Experimental data reported in patent US5068334A, “Pharmaceutical compositions containing quinolin-2,5-diones, new quinolin-2,5-diones and processes for the preparation thereof” (Karl Thomae GmbH, priority 1988, dated 1991).
Where two headings read alike, the source gives them in different places.

What was measured:
acute toxicity in mice = conditions: in vivo, po; mouse, both sexes, oesophageal tube, death within 14 days; read-out: LD^50 Mouse
Method: (§1) 5. The acute toxicity was determined in mice or rats of both sexes with an average weight of 20 g. The test substances were administered by oesophageal tube as a trituration in 1% methylcellulose (0.2 ml/10 g of animal). Wherever possible the LD50 was calculated according to LITCHFIELD and WILCOXON (J. Pharmacol. exp. Therap. 96, 99 (1949)) from the percentage of animals which died within 14 days after receiving various doses.

[1] = tested on: pain of inflammation in rats; assay: effect on the pain of inflammation in rats (RANDALL and SELITTO); assay type: in vivo, rat; conditions: sc, male rats, oesophageal tube, 1% methylcellulose, after subcutaneous yeast
Method: 1. The effect on the pain of inflammation in rats was tested using the method of RANDALL and SELITTO (Arch. int. Pharmacodyn. 111, 409 (1957)). The test substances were administered to male rats weighing between 100 and 130 g as a trituration in 1% methylcellulose (1.0 ml/100 g of animal) 90 or 135 minutes after subcutaneous administration of yeast by oesophageal tube. From the pain threshold measured 90 or 45 minutes after administration of the various doses, the ED^50 was determined by linear regression analysis as the dosage which raised the pain threshold by 50%. The following

acute toxicity in rats = conditions: in vivo, po; rat, both sexes, oesophageal tube, death within 14 days
Method: as §1

[2] = tested on: mechanically induced pain; assay: effect on mechanically induced pain, tail clamp method (HAFFNER); assay type: in vivo; conditions: Mus musculus, po, 0.5 h, male mice, oesophageal tube, 1% methylcellulose, 30 minute intervals, read-out: ED^50 (percentage of animals which showed no pain-reaction)
[3] = tested on: body temperature of normothermic rats; assay: effect on body temperature of normothermic rats; assay type: in vivo; conditions: Rattus norvegicus, po, oesophageal tube, 1% methylcellulose, rectal temperature, read-out: ED^-1.5° C. (dosage which lowered the body temperature by 1.5° C.)
Method: 4. The effect on body temperature was investigated on normothermic rats weighing between 120 and 140 g. The test substances were administered by oesophageal tube as a trituration in 1% methylcellulose (1.0 ml/100 g of animal). From the lowering of rectal temperature observed after various dosages, the ED^-1.5° C. was calculated by linear regression analysis as the dosage which lowered the body temperature by 1.5° C.

[4] = tested on: heat-induced pain in mice; assay: effect on heat-induced pain in mice (CHEN and BECKMAN); assay type: in vivo; conditions: Mus musculus, po; male mice, oesophageal tube, 1% methylcellulose; read-out: ED^100 (dosage which doubled the reaction time)
Method: 2. The effect on heat-induced pain in mice was investigated using the method of CHEN and BECKMAN (Science 113, 631 (1951). Male mice with an average weight of 20 g were given the test substances as a trituration in 1% methylcellulose (0.1 ml/10 g of animal by oesophageal tube. From the lengthening of the individual reaction time observed after various doses, the ED^100 was calculated by linear regression analysis as the dosage which doubled the reaction time.

[5] = 0.75 h, pain threshold 45 minutes after administration, read-out: ED^50 after 45 minutes (dosage which raised the pain threshold by 50%)
[6] = 1.5 h, pain threshold 90 minutes after administration, read-out: ED^50 after 90 minutes (dosage which raised the pain threshold by 50%)

| SMILES | LD50 at 336 h (acute toxicity in mice) [mg/kg] | ED50 [1, 5] [mg/kg] | ED50 [1, 6] [mg/kg] | LD50 at 336 h (acute toxicity in rats) [mg/kg] | ED50 [2] [mg/kg] | ED (-1.5 degC) [3] [mg/kg] | ED100 [4] [mg/kg] |
| --- | --- | --- | --- | --- | --- | --- | --- |
| Cn1c2c(ccc1=O)C(=O)CCC2 [Substance A, 1-methyl-7,8-dihydro-2,5(1H,6H)-quinolinedione] | 767 | 8.7 | 8.1 | 489 | 80 | 29 | 71 |
| CC1CC2=C(CCCC2=O)NC1=O (stereo not drawn) [Substance B, 3-methyl-3,4,7,8-tetrahydro-2,5(1H,6H)-quinolinedione] | 1220 | 37 | 39 | 659 | 100 | 35 | 155 |
| CN1C(=O)CCC2=C1CCCC2=O [Substance C, 1-methyl-3,4,7,8-tetrahydro-2,5(1H,6H)-quinolinedione] | 985 | 15 | 21 | 748 | 129 | 26 | 99 |
| Cc1cc(=O)[nH]c2c1C(=O)CCC2 [Substance D, 4-methyl-7,8-dihydro-2,5(1H,6H)-quinolinedione] | – | 21 | 34 | 1370 | 129 | 25 | 98 |
| Cc1cc2c([nH]c1=O)CCCC2=O [Substance E, 3-methyl-7,8-dihydro-2,5(1H,6H)-quinolinedione] | 825 | 31 | 36 | – | 102 | 34 | 135 |
| Cc1cc2c(n(C)c1=O)CCCC2=O [Substance F, 1,3-dimethyl-7,8-dihydro-2,5(1H,6H)-quinolinedione] | 296 | 12.5 | 12.1 | 396 | 86 | 36 | 109 |
| CCn1c2c(c(C)cc1=O)C(=O)CCC2 [Substance G, 1-ethyl-4-methyl-7,8-dihydro-2,5(1H,6H)-quinolinedione] | – | 5.1 | 5.9 | – | 26 | 11 | 59 |
| CCCCn1c2c(c(C)cc1=O)C(=O)CCC2 [Substance H, 1-n-butyl-4-methyl-7,8-dihydro-2,5(1H,6H)-quinolinedione] | – | – | 19.1 | – | 50 | 36 | 101 |
| CCN1C(=O)CCC2=C1CCCC2=O [Substance I, 1-ethyl-3,4,7,8-tetrahydro-2,5(1H,6H)-quinolinedione] | – | 13 | 16 | – | 55 | 22 | 70 |
